Key:
Sprague Dawley (SD) rats [1] = test: Mortality and clinical observation, 4-week subacute toxicity study; assay type: in vivo, rat; conditions: for Mild to severe increased activity, starting day: dosing phase
Method: For all surviving animals, a morning and an afternoon observation every day were conducted for the moribundity and death. Daily observation was carried out once within 1 h after each dosing in dosing phase, and at least once daily in recovery phase, including mental status, food and water consumption, hair, discharge, mortality and other toxic reactions. Detailed observation was performed once every week, including appearance, movement, mental status, gland secretions, skin and mucosa color, respiration, genitals, mortality and other toxic reactions.
The animals found dead were recorded for the observation or death time, and weighed followed by a complete postmortem examination to explore the cause of death. All required organs and tissue as listed in the Section 2.11 and other tissues with gross lesions were performed with histopathology examination. Animals found dead which could not be examined immediately were temporarily refrigerated.

Sprague Dawley (SD) rats [2] = test: Hematology, 4-week subacute toxicity study
[3] = female rats, 0.6 mg/kg/day, End of dosing phase
[4] = female rats, 0.6 mg/kg/day, End of recovery phase
[5] = female rats, 1.2 mg/kg/day, End of dosing phase
[6] = female rats, 1.2 mg/kg/day, End of recovery phase
[7] = female rats, 2.4 mg/kg/day, End of dosing phase
[8] = female rats, 2.4 mg/kg/day, End of recovery phase
[9] = female rats, end of dosing phase
[10] = male rats, 0.6 mg/kg/day, End of dosing phase
[11] = male rats, 0.6 mg/kg/day, End of recovery phase
[12] = male rats, 1.2 mg/kg/day, End of dosing phase
[13] = male rats, 1.2 mg/kg/day, End of recovery phase
[14] = male rats, 2.4 mg/kg/day, End of dosing phase
[15] = male rats, 2.4 mg/kg/day, End of recovery phase

What does the source list for `Fc1ccc([C@]2(CCNCc3cccc(Cl)c3)CCO[C@]3(CCOC3)C2)nc1` [LPM3480392]?
Mild to severe increased activity, starting day (Sprague Dawley (SD) rats [1]; 0.6 mg/kg/day): 7; Mild to severe increased activity, starting day (Sprague Dawley (SD) rats [1]; 1.2 mg/kg/day): 4; Increased muscle tone, incidence (Sprague Dawley (SD) rats [1]; 1.2 mg/kg/day, first 5 days of dosing phase): 33/38; Deep respiration or rale, incidence (Sprague Dawley (SD) rats [1]; 2.4 mg/kg/day): 4/36; Hunchback, incidence (Sprague Dawley (SD) rats [1]; 2.4 mg/kg/day): 1/36; Piloerection, incidence (Sprague Dawley (SD) rats [1]; 2.4 mg/kg/day): 1/36; Found dead (1 male and 1 female) (Sprague Dawley (SD) rats [1]; 2.4 mg/kg/day, Days 3 and 15): 2/30; Decreased activity, incidence (Sprague Dawley (SD) rats [1]; 2.4 mg/kg/day, a few time points during dosing phase): 26/36; Mild to severe increased activity, starting day (Sprague Dawley (SD) rats [1]; 2.4 mg/kg/day): 1; Increased muscle tone, incidence (Sprague Dawley (SD) rats [1]; 2.4 mg/kg/day, mostly complete dosing phase): 36/36; LYM (Sprague Dawley (SD) rats [2]; [3]): 4.17 ± 0.90 10^9/L; LYM% (Sprague Dawley (SD) rats [2]; [3]): 86.1 ± 5.8%; MCV (Sprague Dawley (SD) rats [2]; [3]): 58.1 ± 1.5 fL; MONO (Sprague Dawley (SD) rats [2]; [3]): 0.05 ± 0.02 10^9/L; MONO% (Sprague Dawley (SD) rats [2]; [3]): 1.1 ± 0.4 %; NEU (Sprague Dawley (SD) rats [2]; [3]): 0.51 ± 0.26 10^9/L; NEU% (Sprague Dawley (SD) rats [2]; [3]): 10.6 ± 5.5%; PLT (Sprague Dawley (SD) rats [2]; [3]): 1072 ± 103 10^9/L; RBC (Sprague Dawley (SD) rats [2]; [3]): 6.90 ± 0.35 10^12/L; WBC (Sprague Dawley (SD) rats [2]; [3]): 4.84 ± 0.93 10^9/L; LYM (Sprague Dawley (SD) rats [2]; [4]): 3.46 ± 0.53 10^9/L; LYM% (Sprague Dawley (SD) rats [2]; [4]): 85.8 ± 4.4 %; MCV (Sprague Dawley (SD) rats [2]; [4]): 56.4 ± 1.2 fL; MONO (Sprague Dawley (SD) rats [2]; [4]): 0.04 ± 0.02 10^9/L; MONO% (Sprague Dawley (SD) rats [2]; [4]): 1.1 ± 0.4 %; NEU (Sprague Dawley (SD) rats [2]; [4]): 0.42 ± 0.17^* 10^9/L; NEU% (Sprague Dawley (SD) rats [2]; [4]): 10.6 ± 4.8 %; PLT (Sprague Dawley (SD) rats [2]; [4]): 975 ± 144 10^9/L; RBC (Sprague Dawley (SD) rats [2]; [4]): 7.56 ± 0.22 10^12/L; WBC (Sprague Dawley (SD) rats [2]; [4]): 4.03 ± 0.57 10^9/L; LYM (Sprague Dawley (SD) rats [2]; [5]): 4.21 ± 1.29 10^9/L; LYM% (Sprague Dawley (SD) rats [2]; [5]): 85.7 ± 7.2%; MCV (Sprague Dawley (SD) rats [2]; [5]): 58.7 ± 2.1 fL; MONO (Sprague Dawley (SD) rats [2]; [5]): 0.05 ± 0.02 10^9/L; MONO% (Sprague Dawley (SD) rats [2]; [5]): 0.9 ± 0.3 %; NEU (Sprague Dawley (SD) rats [2]; [5]): 0.50 ± 0.24 10^9/L; NEU% (Sprague Dawley (SD) rats [2]; [5]): 11.1 ± 7.2%; PLT (Sprague Dawley (SD) rats [2]; [5]): 1064 ± 104 10^9/L; RBC (Sprague Dawley (SD) rats [2]; [5]): 6.59 ± 0.26^* 10^12/L; WBC (Sprague Dawley (SD) rats [2]; [5]): 4.87 ± 1.28 10^9/L; LYM (Sprague Dawley (SD) rats [2]; [6]): 2.95 ± 0.75 10^9/L; LYM% (Sprague Dawley (SD) rats [2]; [6]): 85.9 ± 3.0 %; MCV (Sprague Dawley (SD) rats [2]; [6]): 56.6 ± 1.8 fL; MONO (Sprague Dawley (SD) rats [2]; [6]): 0.04 ± 0.01 10^9/L; MONO% (Sprague Dawley (SD) rats [2]; [6]): 1.2 ± 0.4 %; NEU (Sprague Dawley (SD) rats [2]; [6]): 0.35 ± 0.08^* 10^9/L; NEU% (Sprague Dawley (SD) rats [2]; [6]): 10.6 ± 2.5 %; PLT (Sprague Dawley (SD) rats [2]; [6]): 975 ± 42 10^9/L; RBC (Sprague Dawley (SD) rats [2]; [6]): 7.44 ± 0.33 10^12/L; WBC (Sprague Dawley (SD) rats [2]; [6]): 3.42 ± 0.78 10^9/L; LYM (Sprague Dawley (SD) rats [2]; [7]): 2.53 ± 0.59 10^9/L; LYM% (Sprague Dawley (SD) rats [2]; [7]): 81.1 ± 5.3%; MCV (Sprague Dawley (SD) rats [2]; [7]): 58.1 ± 1.9 fL; MONO (Sprague Dawley (SD) rats [2]; [7]): 0.03 ± 0.02^* 10^9/L; MONO% (Sprague Dawley (SD) rats [2]; [7]): 1.0 ± 0.3 %; NEU (Sprague Dawley (SD) rats [2]; [7]): 0.51 ± 0.29 10^9/L; NEU% (Sprague Dawley (SD) rats [2]; [7]): 15.4 ± 4.6%; PLT (Sprague Dawley (SD) rats [2]; [7]): 946 ± 108^* 10^9/L; RBC (Sprague Dawley (SD) rats [2]; [7]): 6.57 ± 0.30^* 10^12/L; WBC (Sprague Dawley (SD) rats [2]; [7]): 3.15 ± 0.87 10^9/L; LYM (Sprague Dawley (SD) rats [2]; [8]): 3.02 ± 0.62 10^9/L; LYM% (Sprague Dawley (SD) rats [2]; [8]): 83.7 ± 3.4 %; MCV (Sprague Dawley (SD) rats [2]; [8]): 56.8 ± 0.8 fL; MONO (Sprague Dawley (SD) rats [2]; [8]): 0.04 ± 0.01 10^9/L; MONO% (Sprague Dawley (SD) rats [2]; [8]): 1.2 ± 0.3 %; NEU (Sprague Dawley (SD) rats [2]; [8]): 0.46 ± 0.09^* 10^9/L; NEU% (Sprague Dawley (SD) rats [2]; [8]): 12.8 ± 2.8 %; PLT (Sprague Dawley (SD) rats [2]; [8]): 998 ± 45 10^9/L; RBC (Sprague Dawley (SD) rats [2]; [8]): 7.45 ± 0.17 10^12/L; WBC (Sprague Dawley (SD) rats [2]; [8]): 3.60 ± 0.67 10^9/L; Magnitude of change of MCV (Sprague Dawley (SD) rats [2]; [9]): less than 5%; Magnitude of change of PLT (Sprague Dawley (SD) rats [2]; [9]): < 15%; Magnitude of change of RBC (Sprague Dawley (SD) rats [2]; [9]): < 6%; EOS (Sprague Dawley (SD) rats [2]; [10]): 0.042 ± 0.013 10^9/L; EOS% (Sprague Dawley (SD) rats [2]; [10]): 0.90 ± 0.42%; MONO (Sprague Dawley (SD) rats [2]; [10]): 0.07 ± 0.03 10^9/L; MONO% (Sprague Dawley (SD) rats [2]; [10]): 1.3 ± 0.6%; RBC (Sprague Dawley (SD) rats [2]; [10]): 7.05 ± 0.32 10^12/L; RET (Sprague Dawley (SD) rats [2]; [10]): 0.300 ± 0.051 10^12/L; RET % (Sprague Dawley (SD) rats [2]; [10]): 4.26 ± 0.77%; WBC (Sprague Dawley (SD) rats [2]; [10]): 5.19 ± 1.38 10^9/L; EOS (Sprague Dawley (SD) rats [2]; [11]): 0.046 ± 0.018 10^9/L; EOS% (Sprague Dawley (SD) rats [2]; [11]): 1.14 ± 0.38%; MONO (Sprague Dawley (SD) rats [2]; [11]): 0.04 ± 0.02 10^9/L; MONO% (Sprague Dawley (SD) rats [2]; [11]): 1.0 ± 0.4%; RBC (Sprague Dawley (SD) rats [2]; [11]): 7.96 ± 0.24 10^12/L; RET (Sprague Dawley (SD) rats [2]; [11]): 0.144 ± 0.021 10^12/L; RET % (Sprague Dawley (SD) rats [2]; [11]): 1.81 ± 0.30%; WBC (Sprague Dawley (SD) rats [2]; [11]): 4.04 ± 1.12 10^9/L; EOS (Sprague Dawley (SD) rats [2]; [12]): 0.035 ± 0.016^* 10^9/L; EOS% (Sprague Dawley (SD) rats [2]; [12]): 0.77 ± 0.39%; MONO (Sprague Dawley (SD) rats [2]; [12]): 0.05 ± 0.02 10^9/L; MONO% (Sprague Dawley (SD) rats [2]; [12]): 1.1 ± 0.3%; RBC (Sprague Dawley (SD) rats [2]; [12]): 7.06 ± 0.32 10^12/L; RET (Sprague Dawley (SD) rats [2]; [12]): 0.331 ± 0.062^* 10^12/L; RET % (Sprague Dawley (SD) rats [2]; [12]): 4.70 ± 0.92 %; WBC (Sprague Dawley (SD) rats [2]; [12]): 4.56 ± 0.55 10^9/L; EOS (Sprague Dawley (SD) rats [2]; [13]): 0.042 ± 0.013 10^9/L; EOS% (Sprague Dawley (SD) rats [2]; [13]): 0.90 ± 0.12%; MONO (Sprague Dawley (SD) rats [2]; [13]): 0.04 ± 0.02 10^9/L; MONO% (Sprague Dawley (SD) rats [2]; [13]): 0.9 ± 0.3%; RBC (Sprague Dawley (SD) rats [2]; [13]): 7.99 ± 0.29 10^12/L; RET (Sprague Dawley (SD) rats [2]; [13]): 0.132 ± 0.017 10^12/L; RET % (Sprague Dawley (SD) rats [2]; [13]): 1.65 ± 0.21%; WBC (Sprague Dawley (SD) rats [2]; [13]): 4.50 ± 1.16 10^9/L; EOS (Sprague Dawley (SD) rats [2]; [14]): 0.022 ± 0.014^* 10^9/L; EOS% (Sprague Dawley (SD) rats [2]; [14]): 0.49 ± 0.29 %; MONO (Sprague Dawley (SD) rats [2]; [14]): 0.04 ± 0.02^* 10^9/L; MONO% (Sprague Dawley (SD) rats [2]; [14]): 0.9 ± 0.4%; RBC (Sprague Dawley (SD) rats [2]; [14]): 7.05 ± 0.37 10^12/L; RET (Sprague Dawley (SD) rats [2]; [14]): 0.387 ± 0.053^* 10^12/L; RET % (Sprague Dawley (SD) rats [2]; [14]): 5.51 ± 0.83 %; WBC (Sprague Dawley (SD) rats [2]; [14]): 4.24 ± 0.98 10^9/L; EOS (Sprague Dawley (SD) rats [2]; [15]): 0.032 ± 0.011 10^9/L; EOS% (Sprague Dawley (SD) rats [2]; [15]): 0.66 ± 0.21%; MONO (Sprague Dawley (SD) rats [2]; [15]): 0.05 ± 0.02 10^9/L; MONO% (Sprague Dawley (SD) rats [2]; [15]): 1.1 ± 0.3%; RBC (Sprague Dawley (SD) rats [2]; [15]): 7.62 ± 0.37 10^12/L; RET (Sprague Dawley (SD) rats [2]; [15]): 0.157 ± 0.008 10^12/L; RET % (Sprague Dawley (SD) rats [2]; [15]): 2.07 ± 0.11 %; WBC (Sprague Dawley (SD) rats [2]; [15]): 5.02 ± 0.40 10^9/L

From article PMC10436550, “Subacute toxicity evaluations of LPM3480392 in rats, a full µ-opioid receptor biased agonist” (Frontiers in Pharmacology, 2023)
